Source: article PMC4355058 (Analytical biochemistry, 2014)
pKd: −log10 of the molar value. Structures can show the parent of a compound that is named as a salt. Where two headings read alike, the source gives them in different places.

Key:
A2a-8M receptor = A2a-8M receptor (Homo sapiens, UniProt P29274, A54L/K122A/L202A/L235A/N154A/R107A/S277A/T88A/V239A); experiment: Isothermal chemical denaturation
WT A2a receptor = conditions: cited from earlier work
A2a-8M [1] = molecular target: A2a-8M (Homo sapiens, UniProt P29274, A54L/K122A/L202A/L235A/R107A/S277A/T88A/V239A); experiment: SPR analysis of small molecule binding
A2aR = conditions: read-out: Kd, SPR study at 10°C; cited from earlier work
A2a-8M [2] = experiment: SPR analysis of small molecule binding; conditions: read-out: SPR Kd
[3] = [L] = 21 μM, 25°C, 338 nm, apo 1.37
[4] = [L] = 21 μM, 25°C, 338 nm, apo 2.90
[5] = [L] = 21 μM, 25°C, protein […], 338 nm, apo 3.96
[6] = [L] = 2 μM, 25°C, 338 nm (SCH58261 at 316 nm), apo 2.90 (338 nm), 2.88 (316 nm)
[7] = [L] = 2 μM, 25°C, 338 nm (SCH58261 at 316 nm), apo 1.37

Sequence of A2a-8M receptor (P29274 1-316 A54L/T88A/R107A/K122A/N154A/L202A/L235A/V239A/S277A): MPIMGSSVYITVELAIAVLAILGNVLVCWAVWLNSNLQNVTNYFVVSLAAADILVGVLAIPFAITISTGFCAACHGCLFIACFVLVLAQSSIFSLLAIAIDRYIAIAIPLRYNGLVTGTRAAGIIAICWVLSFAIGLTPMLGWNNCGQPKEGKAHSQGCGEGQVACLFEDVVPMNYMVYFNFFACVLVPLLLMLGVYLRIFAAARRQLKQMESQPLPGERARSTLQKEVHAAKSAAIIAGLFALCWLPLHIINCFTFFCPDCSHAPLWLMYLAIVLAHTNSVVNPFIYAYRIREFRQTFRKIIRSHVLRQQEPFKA
Sequence of A2a-8M (Homo sapiens, UniProt P29274, A54L/K122A/L202A/L235A/R107A/S277A/T88A/V239A) (P29274 1-317 A54L/T88A/R107A/K122A/L202A/L235A/V239A/S277A): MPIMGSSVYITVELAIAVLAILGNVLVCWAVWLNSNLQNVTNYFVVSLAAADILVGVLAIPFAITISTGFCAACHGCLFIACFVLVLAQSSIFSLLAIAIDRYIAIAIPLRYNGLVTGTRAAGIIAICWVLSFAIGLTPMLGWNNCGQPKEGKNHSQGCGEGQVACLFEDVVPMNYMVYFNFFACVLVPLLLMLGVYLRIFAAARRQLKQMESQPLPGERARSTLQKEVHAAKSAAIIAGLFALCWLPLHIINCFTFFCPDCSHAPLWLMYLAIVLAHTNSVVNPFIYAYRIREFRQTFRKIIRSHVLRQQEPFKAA

SMILES | m (A2a-8M receptor; [3]) | C½ (midpoint of denaturation curve) (A2a-8M receptor; [4]) | ΔG (Gibbs energy of protein stability in presence of ligand) (A2a-8M receptor; [5]) | C½ (midpoint of denaturation curve) (A2a-8M receptor; [6]) | further results
CCOc1nc2c(N)ncnc2n1CC [ANR94] | 1.65 kcal/mol×M | 3.53 M GuHCl | 5.82 kcal/mol |  | 
CCNC(=O)[C@H]1O[C@@H](n2cnc3c(N)nc(NCCc4ccc(CCC(=O)O)cc4)nc32)[C@H](O)[C@@H]1O [CGS21680] |  |  |  |  | binding affinity (WT A2a receptor): > 10 µM
Cn1c(=O)c2c(ncn2C)n(C)c1=O [Caffeine] |  |  |  | 3.28 M GuHCl | 
N=C(N)NC(=O)Cc1c(Cl)cccc1Cl [Guanfacine HCl] | 1.37 kcal/mol×M | 2.25 M GuHCl | 3.08 kcal/mol |  | 
CCCCC#Cc1nc(NC)c2ncn([C@@H]3O[C@H](CO)[C@@H](O)[C@H]3O)c2n1 [Hemado] | 1.77 kcal/mol×M | 2.59 M GuHCl | 4.59 kcal/mol |  | 
CCCn1c(=O)[nH]c2nc(-c3ccc(S(=O)(=O)O)cc3)[nH]c2c1=O [PSB1115] |  |  |  | 3.82 M GuHCl | m (A2a-8M receptor; [7]): 1.63 kcal/mol×M; pKd (A2aR): 6.80
Nc1nc2c(cnn2CCc2ccccc2)c2nc(-c3ccco3)nn12 [SCH58261] |  |  |  |  | pKd (A2a-8M [2]): 7.85; C½ (midpoint of denaturation curve) (A2a-8M receptor): 3.91 M GuHCl; m (A2a-8M receptor): 1.80 kcal/mol×M; ΔG (Gibbs energy of protein stability in presence of ligand) (A2a-8M receptor): 7.01 kcal/mol
COc1ccc(CCCn2ncc3c2nc(N)n2nc(-c4ccco4)nc32)cc1 [SCH442416] |  |  |  |  | binding affinity (WT A2a receptor): 50 pm
CN1CCc2cccc(Cl)c2CC1.Cl [SKF86466 HCl] | 1.55 kcal/mol×M | 2.18 M GuHCl | 3.38 kcal/mol |  | 
COC1CCN(c2cccc(-c3cc(NC(C)=O)nc(-n4nc(C)cc4C)n3)n2)CC1 [TC-G1004] |  |  |  |  | m (A2a-8M receptor; [L] = 0.4 μM, 25°C, 338 nm (SCH442416 at 316 nm), apo 1.37): 1.42 kcal/mol×M

The next lines start with results.

m (A2a-8M receptor; [3]) | C½ (midpoint of denaturation curve) (A2a-8M receptor; [4]) | ΔG (Gibbs energy of protein stability in presence of ligand) (A2a-8M receptor; [5]) | C½ (midpoint of denaturation curve) (A2a-8M receptor; [6]) | SMILES | further results
 |  |  | 3.18 M GuHCl | N#Cc1c(N)nc(SCc2ncc[nH]2)c(C#N)c1-c1ccc(O)cc1 [LUF5834] | m (A2a-8M receptor; [7]): 1.90 kcal/mol×M
 |  |  | 3.20 M GuHCl | CCO/C(O)=C1\C(C)=NC(c2ccccc2)=C(C(=O)OCc2ccc([N+](=O)[O-])cc2)C1C#Cc1ccccc1 (stereo not shown) [MRS1334] | pKd (A2a-8M [1]): 5.23; pKd (A2a-8M receptor): 5.26; m (A2a-8M receptor; [7]): 1.30 kcal/mol×M
1.56 kcal/mol×M | 2.22 M GuHCl | 3.47 kcal/mol |  | Nc1nc(SCCc2ccc(S(=O)(=O)O)cc2)nc2c1ncn2[C@@H]1O[C@H](CO)[C@@H](O)[C@H]1O [PSB0777] | 
 |  |  | 2.98 M GuHCl | c1ccc(NCc2ccc(CNc3ccccn3)cc2)nc1 [WZ811] | m (A2a-8M receptor; [7]): 1.19 kcal/mol×M
1.50 kcal/mol×M | 3.41 M GuHCl | 5.11 kcal/mol |  | Cl.Cl.OCCOCCN1CCN(Cc2cccc(Oc3ccccc3)c2)CC1 [ZK756326] | 
